Legend:
gastric acid output = experiment: Gastric antisecretory activity in the two hour pylorus ligated (Shay) rat; type: in vivo, rat (male Long Evans)
Excerpt: The pyloric ligation procedure in the rat was designed by Shay et al., Gastroenterology, 5, 53 (1945) for the study of perforating gastric ulcers; however, as the method became known, it was also employed as a means of studying rat gastric secretion, Shay et al., Gastroenterology, 26, 906 (1954), Brodie, D. A., Am. J. Dig. Dis., 11, 231 (1966). A modification of this procedure is presently used to evaluate compounds for gastric antisecretory activity.
Male Long Evans rats, 280-300 gm., are used. The animals are placed in individual cages and fasted for 24 hours with free access to water. Under ether anesthesia, the stomach is reached through a midline incision, and a cotton-thread ligature is placed around the pylorus. […] All compounds are solubilized with one equivalent of HCl and brought to the proper volume with water. The animals are returned to their cages from which the water bottles have been removed and two hours later are sacrificed with ether. The stomach is removed and the two hour gastric collection is drained into a graduated test tube for volume determination. Titratable acidity is measured by titrating a one ml. sample to pH 7.0 with 0.02 N NaOH, using an Autoburet and an electrometric pH meter (Radiometer). […] The percent inhibition of acid output is calculated as follows [formula]

[1] = test system: histamine-induced gastric acid output; experiment: Gastric antisecretory activity in the gastric fistula dog (histamine-induced gastric acid output); type: in vivo, dog (beagle); settings: for Percent Inhibition Acid Output: 1.5 μMole/kg iv (BL-5949: one dog at this dose)
Description: Thomas type [Thomas, J. E., Proc. Soc. exp. Biol. Med., 46, 260 (1941)] stainless steel cannulae are inserted into the stomachs of beagle dogs (10-12 kg.) just orad to the pyloric gland area near the greater curvature to provide a chronic gastric fistula. Animals are allowed to recover for at least two months before any testing is done. Dogs are fasted overnight (~18 hours) with water ad lib prior to each experiment. The dogs are placed in a sling and an eight inch inside needle catheter (C. R. Baird, Inc.) with a two inch 17 gauge needle is inserted into a leg vein for purposes of drug administration. Gastric secretions are collected every 15 minutes by gravity drainage from the opened cannula. […] A modification of the procedure described by Grossman and Konturek, Gastroenterology, 66, 517 (1974) was followed. […] Each 15 minute sample of gastric juice is measured to the nearest 0.5 ml. and titratable acidity against 0.02 N NaOH (endpoint pH 7.0) is measured with an Autoburet and pH meter (radiometer).The percent inhibition of acid output is calculated as described in the pylorus ligated rat procedure.

histamine H2-receptors [2] = target: T1, histamine H2-receptors (Cavia porcellus, UniProt P47747); experiment: Histamine H2-receptor antagonism, isolated guinea pig right atria; settings: for Histamine ED50 after test compound / Concentration-Response Curve Displacement Factor: test compound 3 × 10^-5 M; for Histamine ED50 after test compound: 30 minute incubation, 95% limits: cimetidine 3.9-5.9 (N=8), Compound XII 3.10-5.98 (N=2), BL-5949 12.50-15.90 (N=5); for Concentration-Response Curve Displacement Factor: displacement of histamine curve to the right
T1 construct: The spontaneously beating right atrium was dissected free from other tissues; from tissue; host or cells: isolated right atrium of male Hartley guinea pigs
Description: Subsequent investigations by Hughes and Coret, Proc. Soc. […] Black et al., Agents and Actions, 3, 133 (1973) and Brimblecombe et al., Fed. […] The present comparative studies were carried out using a modification of the procedure reported by Reinhardt et al., Agents and Actions, 4, 217 (1974).
Male Hartley strain guinea pigs (350-450 gm.) were sacrificed by a blow on the head. The heart was excised and placed in a Petri dish of oxygenated (95% O2, 5% CO2) modified Krebs solution (g./liter: NaCl 6.6, KCl 0.35, MgSO4.7 H2 O 0.295, KH2 PO4 0.162, CaCl2 0.238, NaHCO3 2.1 and dextrose 2.09). The spontaneously beating right atrium was dissected free from other tissues and a silk thread (4-0) attached to each end. The atrium was suspended in a 20 ml. muscle chamber containing oxygenated modified Krebs solution maintained at 32° C. Atrial contractions were recorded isometrically by means of a Grass FT 0.03 force displacement transducer and recordings of contractile force and rate were made with a Beckman RP Dynograph.
A resting tension of 1 g. was applied to the atrium and it was allowed to equilibrate for 1 hour.
Concentration-response curve displacement factors were calculated as follows: [formula] […] [formula]

peptic ulcer disease = settings: Gray et al., Lancet, 1 (8001), 4 (1977); cited from earlier work
[3] = clinical; cited from earlier work
H2-receptor = settings: cited from earlier work
histamine H2-receptors [4] = target: T1, histamine H2-receptors; settings: Black et al., Nature, 236, 385 (1972); cited from earlier work
[5] = cited from earlier work
gastric secretion = settings: animals and man; cited from earlier work

T1 sequence (P47747 whole entry): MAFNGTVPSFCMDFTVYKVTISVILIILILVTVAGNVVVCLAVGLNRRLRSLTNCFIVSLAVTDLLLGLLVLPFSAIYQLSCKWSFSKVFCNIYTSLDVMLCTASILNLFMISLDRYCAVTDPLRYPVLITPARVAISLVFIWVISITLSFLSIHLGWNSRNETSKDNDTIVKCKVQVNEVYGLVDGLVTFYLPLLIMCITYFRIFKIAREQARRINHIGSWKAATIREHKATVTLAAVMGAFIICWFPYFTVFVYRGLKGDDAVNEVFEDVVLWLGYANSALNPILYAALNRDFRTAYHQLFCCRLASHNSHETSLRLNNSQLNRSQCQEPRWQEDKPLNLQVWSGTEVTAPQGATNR

| Compound | Percent Inhibition Acid Output [1] | Histamine ED50 after test compound (histamine H2-receptors [2]) | Concentration-Response Curve Displacement Factor (histamine H2-receptors [2]) | Toxicity (agranulocytosis) (in words) [3] | Potency as H2 antagonist (in words) (H2-receptor) | Oral absorption / oral activity (in words) [5] | further results |
| --- | --- | --- | --- | --- | --- | --- | --- |
| C#CCNC(=C[N+](=O)[O-])NCCSCc1[nH]cnc1C [BL-5949, 1-Nitro-2-(2-propynylamino)-2-{2-[(4-methyl-1H-imidazol-5-yl)methylthio]ethylamino}ethylene] | 88% | – | – | – | – | – | Potency relative to Compound XII (gastric acid output; ip, rat): 3.7 times; Potency as inhibitor of gastric secretion (in words) (gastric acid output; rats): more potent than either cimetidine or Compound XII; Potency as inhibitor of gastric secretion (in words) ([1]; dogs): more potent than either cimetidine or Compound XII; Potency relative to Compound XII ([1]; iv, dog): 3.8 times; Potency as histamine H2-receptor antagonist (in words) (histamine H2-receptors [2]; isolated guinea pig atria): more potent than either cimetidine or Compound XII |
| CNC(=C[N+](=O)[O-])NCCSCc1nc[nH]c1C [Compound XII] | – | 4.30 µg/mL | 17.92 | – | – | – | – |
| CNC(=NC#N)NCCSCc1nc[nH]c1C [Cimetidine] | 53% | 4.80 µg/mL | 25.26 | without producing agranulocytosis | as effective an H2 antagonist as metiamide | – | Effectiveness in peptic ulcer disease (in words) (peptic ulcer disease): an effective therapeutic agent in the treatment of peptic ulcer disease |
| CNC(=S)NCCCCc1cnc[nH]1 [Burimamide] | – | – | – | – | – | oral absorption is poor | Effect at histamine H2-receptors of guinea pig atria (in words) (histamine H2-receptors [4]): a competitive antagonist of these receptors; Inhibition of gastric secretion (in words) (gastric secretion): inhibits gastric secretion in animals and man |
| CNC(=S)NCCSCc1nc[nH]c1C [Metiamide] | – | – | – | toxicity (agranulocytosis) | more potent than burimamide | orally active in man | – |

— patent publication US4221737A, “1-(Alkynyl)amino-1-(mercaptoalkyl)amino ethylenes” (Bristol-Myers Company, priority 1979, dated 1980)
